Results published in paper PMC3305890, “Synthesis and pharmacological characterization of potent, selective, and orally bioavailable isoindoline class dipeptidyl peptidase IV inhibitors” (Organic and Medicinal Chemistry Letters, 2011).
Where two headings read alike, the source gives them in different places.

Experiments:
human plasma DPP-IV = biological target: T1, human plasma DPP-IV (Homo sapiens, UniProt P27487); assay: IC50 with respect to human plasma DPP-IV (separate experiments); assay type: biochemical; conditions: separate experiments (footnote a)
T1 construct: from tissue; host or cells: human plasma
From the text: Table 1 Inhibition of DPP-IV, -8 and -9 activity by 1,3-dihydroisoindoline derivatives 4, their metabolic clearance by rat and human and their enzyme-inducing (CYP1A, CYP2B, and CYP3A) capacity | column: IC50 (nM) / DPP-IV

[1] = Further PK studies: metabolite identification by LC-MS, in vivo conversion of 4b into 4l; conditions: rats, after dosing of 4b
Description: Therefore, further PK studies were conducted. A major metabolite was detected by LC-MS analysis and its structure was determined by comparison of the LC retention time and MS/MS fragmentation pattern with synthetic standards.

[2] = Metabolic stability in human liver microsomes; assay type: in vitro ADME; conditions: read-out: CL'int Human (converted)
Description: (§1) The incubation mixture containing 0.25 mg of rat or human liver microsomes was preincubated with an NADPH-generating system for 5 min at 37°C. The reaction was started by the addition of 5 μL of a DMSO solution containing the test compound (5 μM). At t = 0 and at two additional time points between 0 and 30 min, aliquots (100 μL) were removed and added to termination mixtures (CH3CN). Proteins were sedimented by centrifugation and an aliquot of the supernatant was analyzed by LC/MS/MS.
(§2) In determinations of the in vitrot1/2, the analyte/ISTD peak area ratio was converted to percentage of drug remaining by assigning a value of 100% to the peak area ratio at t = 0. The slope of the regression line fitted to the log (percentage remaining) versus incubation time relationship (-k) was used in the conversion of raw data to the in vitrot1/2 value. In vitro CLint was calculated using the following formula.
(§3) CLint=0.693/Invitro t1/2×mL incubation/mg microsomes×45 mg microsomes/mg liver×[…] (b.w.)

blood glucose = assay: Oral glucose tolerance test (OGTT), blood glucose; assay type: in vivo; conditions: Wistar/ST rats, 1 mg/kg oral, glucose challenge 1 g/kg
Description: (§4) After 30 min (t = 0), oral glucose challenges (1 g/kg) were conducted and then plasma DPP-IV activities and blood glucose levels were monitored at various intervals over a 2 h period.
(§5) All procedures were approved by the Sanwa Kagaku Kenkyusho Institutional Animal Care and Use Committee. 7-week old Wistar/ST rats were housed under standard conditions and allowed free access to water and a commercial diet for at least 5 days. […] After an oral glucose challenge (5 mL/kg of an aqueous solution of 20% glucose), blood samples were collected from the tail vein of each animal into heparin-containing tubes at serial time points for 2 h. Plasma was prepared immediately, frozen, and stored at -20°C prior to analysis.
(§6) Plasma glucose and insulin were determined with a glucometer (Glutest Pro; SKK, Japan) and a rat insulin ELISA kit (Shibayagi, Japan), respectively, according to the manufacturer's instructions. Statistical analyses were performed using Microsoft Excel. Individual comparisons among more than two experimental groups were assessed using ANOVA, with Fisher's Least Significant Difference post hoc test. Differences were considered significant at P values < 0.05. Analysis of dose-response data was performed by Dunnett's test.

[3] = Pharmacokinetics (PK) in SD rats; assay type: in vivo, Sprague-Dawley (SD) rats; conditions: for AUC(0-t): read-out: AUC 0-9 h
Description: Sprague-Dawley (SD) rats were housed under standard conditions and allowed free access to water and a commercial diet. On the day before the experiment, rats were fasted overnight and for the first 12 h of the experiment. […] Blood samples were collected from the jugular vein of each animal with a heparinized syringe under diethyl ether anesthesia at serial time points for 24 h after drug administration. Plasma was obtained by centrifugation at 4°C and stored at -70°C until analysis. Protein precipitation was carried out by the addition of the internal standard solution (70% CH3CN with 0.2% acetic acid) to samples. The tubes underwent vigorous shaking and centrifugation for 5 min; then the supernatant was subjected to LC/MS/MS analysis. Peak areas were determined using Xcalibur® software (Thermo Electron Corporation, UK) and AUC values were calculated by the trapezoidal rule.

plasma DPP-IV = biological target: T2, plasma DPP-IV (Rattus norvegicus, UniProt P14740); assay: Inhibition of rat plasma DPP-IV ex vivo during OGTT; assay type: in vivo, Wistar/ST rats; conditions: for inhibition at 1 mg/kg: 1 mg/kg oral
T2 construct: from tissue; host or cells: plasma of Wistar/ST rats
Description: After 30 min (t = 0), oral glucose challenges (1 g/kg) were conducted and then plasma DPP-IV activities and blood glucose levels were monitored at various intervals over a 2 h period. […].
as §5
Plasma DPP-IV activity was determined as described above. A 20 μL plasma sample was mixed with 5 μL of reaction buffer (140 mM NaCl, and 10 mM KCl, 25 mM Tris-HCl, pH 7.4, 1% bovine serum albumin) and 10 μL of buffer containing 60 μM H-Gly-Pro-AMC. After incubation at room temperature for 30 min, the reaction was stopped by the addition of 20 μL of 25% aqueous acetic acid and fluorescence was measured using an excitation wavelength of 360 nm and an emission wavelength of 460 nm.

[4] = Metabolic stability in rat liver microsomes; assay type: in vitro ADME; conditions: 5 μM
Description: as §1, §2, §3

CYP3A = CYP3A enzyme induction in rat hepatocytes (testosterone 6β-hydroxylation); assay type: in vitro ADME; conditions: rat hepatocytes, 1, 10, 50 μM, 2 days
Description: Enzyme induction was evaluated as follows: Hepatocytes isolated from male SD rats were maintained in culture for 1 day before treatment with the test compound or P-450 inducers. The cells were treated with the test compound (1, 10, 50 μM), β-naphthoflavone (10 μM, CYP1A inducer), phenobarbital (50 μM, CYP2B inducer), dexamethasone (10 μM, CYP3A inducer), or vehicle (0.1% DMSO final volume; used as negative control) for 2 days.
Induction of CYP1A, CYP2B, and CYP3A enzymes was determined based on measurements of 7-ethoxyresorufin O-dealkylation, 7-pentoxyresorufin O-dealkylation, and testosterone 6β-hydroxylation, respectively. Assays were started by the addition of Krebs-Henseleit buffer containing 8 μM 7-ethoxyresorufin, 10 μM 7-pentoxyresorufin, or 250 μM testosterone at a volume of 100 μL per well. After incubation at 37°C for 30 min, aliquots were removed and analyzed by fluorometry (an excitation wavelength of 538 nm and an emission wavelength of 590 nm) or LC/MS/MS to determine the quantities of metabolites formed. Any test compound causing a dose-dependent change equal to or greater than 10% of the positive control (see formula below) was considered an enzyme inducer.
% positive control=(activity of test - compound treated cells - activity of negative control)/(activity of positive control - activity of negative control)×100

plasma insulin = assay: Plasma insulin after glucose challenge in OGTT; assay type: in vivo; conditions: Wistar/ST rats, oral 4b, 10 min after glucose challenge
Description: as §4, §5, §6

[5] = Sprague-Dawley, rat, plasma, po 3 mg/kg
[6] = Sprague-Dawley, rat, plasma, po 10 mg/kg

T2 sequence (P14740 37-767 limits assumed): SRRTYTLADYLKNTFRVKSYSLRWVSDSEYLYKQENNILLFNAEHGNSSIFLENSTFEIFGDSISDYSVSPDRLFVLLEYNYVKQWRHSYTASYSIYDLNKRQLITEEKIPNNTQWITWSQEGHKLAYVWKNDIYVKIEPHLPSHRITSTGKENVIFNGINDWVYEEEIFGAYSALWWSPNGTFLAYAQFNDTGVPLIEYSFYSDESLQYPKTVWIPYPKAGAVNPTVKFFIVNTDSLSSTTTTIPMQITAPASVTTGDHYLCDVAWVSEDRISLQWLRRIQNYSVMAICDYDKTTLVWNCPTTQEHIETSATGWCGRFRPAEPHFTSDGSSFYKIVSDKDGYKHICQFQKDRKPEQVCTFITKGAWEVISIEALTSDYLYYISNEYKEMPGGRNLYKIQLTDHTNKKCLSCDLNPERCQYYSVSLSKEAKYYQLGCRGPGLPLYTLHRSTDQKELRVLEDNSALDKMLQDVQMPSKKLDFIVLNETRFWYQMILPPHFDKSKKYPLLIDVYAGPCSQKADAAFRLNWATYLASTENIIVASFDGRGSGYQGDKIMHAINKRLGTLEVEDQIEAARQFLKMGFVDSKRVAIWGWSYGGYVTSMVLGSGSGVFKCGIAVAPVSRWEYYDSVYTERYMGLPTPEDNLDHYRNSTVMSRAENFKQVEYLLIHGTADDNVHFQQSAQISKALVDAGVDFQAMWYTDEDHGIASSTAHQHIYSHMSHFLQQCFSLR
T1 sequence (P27487 39-766 limits assumed): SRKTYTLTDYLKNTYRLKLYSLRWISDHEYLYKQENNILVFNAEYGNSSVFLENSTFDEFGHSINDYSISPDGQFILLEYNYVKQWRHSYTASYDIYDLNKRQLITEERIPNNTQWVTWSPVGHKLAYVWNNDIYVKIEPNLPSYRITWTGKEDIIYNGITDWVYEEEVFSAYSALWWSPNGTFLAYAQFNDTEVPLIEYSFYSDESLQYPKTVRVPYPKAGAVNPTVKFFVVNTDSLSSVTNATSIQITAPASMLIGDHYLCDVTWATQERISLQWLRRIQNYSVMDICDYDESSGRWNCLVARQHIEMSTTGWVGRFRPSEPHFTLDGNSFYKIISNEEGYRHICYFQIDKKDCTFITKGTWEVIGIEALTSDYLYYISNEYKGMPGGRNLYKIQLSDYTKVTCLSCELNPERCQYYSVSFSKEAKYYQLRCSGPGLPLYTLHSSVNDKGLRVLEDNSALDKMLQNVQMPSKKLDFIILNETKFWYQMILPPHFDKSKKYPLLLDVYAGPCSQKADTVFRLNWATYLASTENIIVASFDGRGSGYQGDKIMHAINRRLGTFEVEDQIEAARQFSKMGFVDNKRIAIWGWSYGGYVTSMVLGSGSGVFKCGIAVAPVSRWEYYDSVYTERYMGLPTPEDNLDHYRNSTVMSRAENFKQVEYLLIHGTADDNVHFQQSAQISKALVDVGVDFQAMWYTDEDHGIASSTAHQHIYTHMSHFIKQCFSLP

## CC(C)(CC(=O)N1Cc2ccc(CO)cc2C1)NCC(=O)N1CCC[C@H]1C#N [Compound 4l, (S)-1-(2-(4-(5-(Hydroxymethyl)isoindolin-2-yl)-2-methyl-4-oxobutan-2-ylamino)acetyl)pyrrolidine-2-carbonitrile]
Human plasma DPP-IV
  IC50: 1.9 nM
[1]
  in vivo conversion (of 4b into metabolite 4l): 60%

## Cc1ccc2c(c1)CN(C(=O)CC(C)(C)NCC(=O)N1CCC[C@H]1C#N)C2 [Compound 4b, (S)-1-(2-(2-Methyl-4-(5-methylisoindolin-2-yl)-4-oxobutan-2-ylamino)acetyl)pyrrolidine-2-carbonitrile]
[2]
  CLint scaled at 5 μM: 1.67 mL/min/kg
Blood glucose
  reduction of glucose levels in OGTT: 18%
[3]; Sprague-Dawley, rat, plasma, iv 1 mg/kg
  AUC(0-t): 39 ng·h/mL
[3]; Sprague-Dawley, rat, plasma, iv 1 mg/kg, read-out: CL p (converted)
  clearance: 437 mL/min/kg
[3]; Sprague-Dawley, rat, plasma, iv 1 mg/kg, read-out: Vd ss
  Vd: 8.28 L/kg
[3]; [5]
  Cmax: 37 ng/mL
  Tmax: 15 min
  AUC(0-t): 33 ng·h/mL
[3]; [6]
  Cmax: 229 ng/mL
  Tmax: 15 min
  AUC(0-t): 156 ng·h/mL
[3]; iv 1 mg/kg, first t 1/2 column
  t 1/2α: 3.72 min
[3]; iv 1 mg/kg, second t 1/2
  t 1/2α: 16.2 min
[3]; po 3 mg/kg
  BA: 27.7%
[3]; po 3 mg/kg, second t 1/2
  t 1/2α: 82.2 min
[3]; po 10 mg/kg
  BA: 39.9%
[3]; po 10 mg/kg, second t 1/2
  t 1/2α: 90 min
Plasma DPP-IV; 3-10 mg/kg doses, for several hours, estimated from the PK profiles
  inhibition of DPP-IV estimated from the PK profiles: > 50%
Plasma DPP-IV; rat, Wistar/ST rats, 0.1 mg/kg oral
  inhibition at 0.1 mg/kg: 30%
Plasma DPP-IV; rat, Wistar/ST rats, over 2 h period after glucose challenge, read-out: inhibition of plasma DPP-IV activity maintained throughout the study
  inhibition at 1 mg/kg: > 90%
Plasma DPP-IV; rat, Wistar/ST rats, within 30 min post-dose, read-out: inhibition of plasma DPP-IV activity
  inhibition at 1 mg/kg: 95%
[4]
  CL'int Rat: 2.3 L/h/kg
CYP3A
  Enzyme induction (rat) CYP3A: - (Any test compound causing a dose-dependent change equal to or greater than 10% of the positive control (see formula below) was considered an enzyme inducer)
Plasma insulin
  insulin levels at 10 min post-challenge: increased
